This note sets out measurements from patent US20010039287A1, “AROMATIC SULFONE HYDROXAMIC ACID METALLOPROTEASE INHIBITOR” (priority 1997, published 2001).

Where a name gives a salt, the structure may show the parent alone.

What all share (assay): biochemical
One experiment deals with T1, recombinant human MMP-2 (Homo sapiens, UniProt P08253).
T1 sequence (P08253 110-660): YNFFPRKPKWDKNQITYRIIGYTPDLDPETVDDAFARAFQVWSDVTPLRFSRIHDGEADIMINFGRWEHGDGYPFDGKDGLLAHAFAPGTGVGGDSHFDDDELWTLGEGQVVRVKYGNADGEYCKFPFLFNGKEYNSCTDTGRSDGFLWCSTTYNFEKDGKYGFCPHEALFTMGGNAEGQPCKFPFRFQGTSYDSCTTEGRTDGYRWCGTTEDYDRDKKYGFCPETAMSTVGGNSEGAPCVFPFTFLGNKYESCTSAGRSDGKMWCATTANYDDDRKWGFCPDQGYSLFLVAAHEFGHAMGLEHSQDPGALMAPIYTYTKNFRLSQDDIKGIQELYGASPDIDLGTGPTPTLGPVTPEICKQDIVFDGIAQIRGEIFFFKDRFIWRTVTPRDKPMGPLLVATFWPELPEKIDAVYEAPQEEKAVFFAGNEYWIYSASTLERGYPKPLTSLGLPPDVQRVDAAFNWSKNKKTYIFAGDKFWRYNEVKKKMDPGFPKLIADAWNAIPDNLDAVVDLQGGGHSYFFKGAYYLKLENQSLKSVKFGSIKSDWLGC
The following applies: Inhibition Table B; read-out: MMP-2 IC50.

Another experiment has as its target recombinant human MMP-13 (Homo sapiens, UniProt P45452). The following applies: Inhibition Table B; read-out: MMP-13 IC50.
The target of another experiment is T2, recombinant human MMP-1 (Homo sapiens, UniProt P03956).
T2 construct: made in house; host or cells: transfected HT-1080 cells (provided by Dr. Harold Welgus, Washington University)
T2 sequence (P03956 100-469): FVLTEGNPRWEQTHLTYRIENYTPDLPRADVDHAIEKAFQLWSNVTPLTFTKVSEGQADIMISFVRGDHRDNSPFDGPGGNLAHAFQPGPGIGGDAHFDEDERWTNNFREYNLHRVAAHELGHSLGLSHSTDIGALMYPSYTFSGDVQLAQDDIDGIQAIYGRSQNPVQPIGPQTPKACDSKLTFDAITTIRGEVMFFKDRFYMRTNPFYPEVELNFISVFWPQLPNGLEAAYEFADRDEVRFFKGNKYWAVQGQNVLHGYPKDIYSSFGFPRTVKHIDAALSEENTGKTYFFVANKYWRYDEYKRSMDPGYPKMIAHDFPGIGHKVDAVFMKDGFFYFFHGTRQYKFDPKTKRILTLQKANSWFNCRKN
As to conditions: Inhibition Table B; read-out: MMP-1 IC50.

As a reminder, the IC50 is the point on the concentration scale where inhibition reaches its midpoint. Take `NCCc1ccc(Oc2ccc(S(=O)(=O)C3(C(=O)NO)CCS(=O)(=O)CC3)cc2)cc1` [Example 54, 4-[[4-[4-(2-aminoethyl))-phenoxy]phenyl]sulfonyl]tetrahydro-N-hydroxy-2H-thiopyran-4-carboxamide 1,1-dioxide Monohydrochloride]: the IC50 at recombinant human MMP-2 is 60 nM; on recombinant human MMP-13, 120 nM; on recombinant human MMP-1, > 10000 nM.
In the case of `O=C(NOC1CCCCO1)C1(S(=O)(=O)c2ccc(F)cc2)CCOCC1` (stereo not drawn) [Example 55, 4-[(4-fluorophenyl)-sulfonyl]tetrahydro-N-[(tetrahydro-2H-pyran-2-yl)oxy]-2H-pyran-4-carboxamide], the figures for the IC50 at recombinant human MMP-2, on recombinant human MMP-13 and on recombinant human MMP-1 were 0.1 nM, 0.3 nM and 1200 nM, respectively.
Take `O=C(NO)C1(S(=O)(=O)c2ccc(Oc3ccc(F)c(F)c3)cc2)CCOCC1` [Example 56, 4-[[4-(3,4-difluorophenoxy)-phenyl]sulfonyl]tetrahydro-N-hydroxy-2H-pyran-4-carboxamide]: the IC50 was < 0.1 nM at recombinant human MMP-2, 0.15 nM at recombinant human MMP-13 and 1500 nM on recombinant human MMP-1.
In the same order, the values of `O=C(NO)C1(S(=O)(=O)c2ccc(Oc3ccc(I)cc3)cc2)CCOCC1` [Example 57, Tetrahydro-N-hydroxy-4-[[4-(4-iodophenoxy)phenyl]sulfonyl]-2H-pyran-4-carboxamide] are < 0.1 nM, 0.2 nM and 1200 nM.
For `O=C(NO)C1(S(=O)(=O)c2ccc(Oc3cc(F)c(F)cc3F)cc2)CCOCC1` [Example 58, Tetrahydro-N-hydroxy-4-[[4-(2,4,5-trifluorophenoxy)phenyl]-sulfonyl]-2H-pyran-4-carboxamide] the same measures were 83 nM, 30 nM and > 10000 nM.
For `O=C(NO)C1(S(=O)(=O)c2ccc(Sc3ccc(Cl)c(Cl)c3)cc2)CCOCC1` [Example 60] the same measures were 64 nM, 147 nM and > 10000 nM.
Regarding `Nc1cc(C(F)(F)F)ccc1Sc1ccc(S(=O)(=O)C2(C(=O)NO)CCOCC2)cc1` [Example 61, 4—[[4-[[2-amino-4-(trifluoromethyl)phenyl]thio]phenyl]-sulfonyl]-tetrahydro-N-hydroxy-2H-pyran-4-carboxamide, Monohydrochloride], the figures for the IC50 at recombinant human MMP-2, on recombinant human MMP-13 and at recombinant human MMP-1 were 1500 nM, 2000 nM and > 10000 nM, respectively.
In the same order, the values of `COc1ccc(Oc2ccc(S(=O)(=O)C3(C(=O)NO)CCOCC3)cc2)cc1` [Example 64] are < 0.1 nM, 0.15 nM and 1470 nM.
In the same order, the values of `O=C(NO)C1(S(=O)(=O)c2ccc(F)cc2)CCOCC1` [Example 66, 4-[(4-fluorophenyl)-sulfonyl]tetrahydro-N-hydroxy-2H-pyran-4-carboxamide] are 4590 nM, 36000 nM and > 10000 nM.
For `O=C(NO)C1(S(=O)(=O)c2ccc(OC3CCNCC3)cc2)CCOCC1` [Example 67, tetrahydro-N-hydroxy-4-[[4-(4-piperidinyloxy)phenyllsulfonyl]-2H-pyran-4-carboxamide, Monohydrochloride] the same measures were 239 nM, 268 nM and 1600 nM.
As for `O=C(NO)C1(S(=O)(=O)c2ccc(Oc3ccc(OCc4ccccc4)cc3)cc2)CCOCC1` [Example 72, tetrahydro-N-hydroxy-4-[[4-[4-[(phenylmethyl)oxy]phenoxy]-phenyl]-sulfonyl]-2H-pyran-4-carboxamide], the values for the IC50 on recombinant human MMP-2, at recombinant human MMP-13 and on recombinant human MMP-1 were < 0.1 nM, 0.3 nM and 2100 nM, respectively.
On to `O=C(CS(=O)(=O)c1ccc(NC(=O)OCc2ccccc2)cc1)NO` [Example 74, phenylmethyl-[4-[[2-(hydroxyamino)-2-oxoethyl]-sulfonyl]-phenyl]carbamate], for which the results for the IC50 on recombinant human MMP-2, at recombinant human MMP-13 and at recombinant human MMP-1 were 130 nM, 480 nM and > 10000 nM, respectively.
For `O=C(CS(=O)(=O)c1ccc(NC(=O)Nc2ccccc2)cc1)NO` [Example 75, N—hydroxy-2-[[4-[[(phenylamino)carbonyl]amino]-phenyl]sulfonyl]acetamide] the same measures were 60 nM, 900 nM and > 10000 nM.
For `C=CCN1CCC(C(=O)NO)(S(=O)(=O)c2ccc(Oc3ccc(Cl)c(C)c3)cc2)CC1` [Example 82, 4-[[4-(4-chloro-3-methylphenoxy)phenyljsulfonyl]-N-hydroxy-1-(2-propenyl)-4-piperidinecarboxamide, Monohydrochloride] the same measures were 0.1 nM, 0.3 nM and 4000 nM.
In the same order, the values of `O=C(NO)C1(S(=O)(=O)c2ccc(Oc3ccc(F)c(Cl)c3)cc2)CCNCC1` [Example 84, 4-[[4-(3-chloro-4-fluorophenoxy)phenyl]sulfonyl]-N-hydroxy-4-piperidine Carboxamide, Monohydrochloride] are 1.8 nM, 2.5 nM and 8000 nM.
For the compound `O=C(NO)C1(S(=O)(=O)c2ccc(Sc3ccccc3)cc2)CCNCC1` [Example 86, 4-[[4-(phenylthio)-phenyl]-sulfonyl]-N-hydroxy-4-piperidine-carboxamide, Monohydrochloride], the IC50 was 2.5 nM on recombinant human MMP-2, 3.5 nM at recombinant human MMP-13 and > 10000 nM on recombinant human MMP-1.
In the same order, the values of `CC(C)NC(=O)N1CCC(C(=O)NO)(S(=O)(=O)c2ccc(Oc3ccc(Cl)cc3)cc2)CC1` [Example 90, 4-[[4-(4-chlorophenoxy)-phenyl]sulfonyl]-N^4-hydroxy-N^1-(1-methylethyl)-1,4-piperidine Dicarboxamide] are 0.1 nM, 0.1 nM and 1200 nM.
On to `CN(c1ccccc1)c1ccc(S(=O)(=O)C2(C(=O)NO)CCNCC2)cc1` [Example 92, N-hydroxy-4-[[4-(methylphenylamino)phenyl]sulfonyl]-4-piperidinecarboxamide, Monohydrochloride], for which the values for the half-maximal inhibitory concentration (IC50) on recombinant human MMP-2, at recombinant human MMP-13 and at recombinant human MMP-1 were 1800 nM, 2430 nM and > 10000 nM, respectively.
In the same order, the values of `Cc1ccc(Oc2ccc(S(=O)(=O)C3(C(=O)NO)CCOCC3)cc2)cn1` [Example 97, Tetrahydro-N-hydroxy-4-[[4-[(6-methyl-3-pyridinyl)oxy]phenyl]-sulfonyl]-2H-pyran-4-carboxamide, Monohydrochloride] are 8.2 nM, 16.7 nM and 4000 nM.
Regarding `Cc1cccc(Oc2ccc(S(=O)(=O)C3(C(=O)NO)CCOCC3)cc2)n1` [Example 98, Tetrahydro-N-hydroxy-4-[[4-[(6-methyl-2—pyridinyl)oxy]phenyl]-sulfonyl]-2H-pyran-4-carboxamide], the figures for the 50% inhibitory concentration (IC50) at recombinant human MMP-2, on recombinant human MMP-13 and at recombinant human MMP-1 were 37 nM, 23.4 nM and > 10000 nM, respectively.
On to `COC(=O)CCc1ccc(Oc2ccc(S(=O)(=O)C3(C(=O)NO)CCOCC3)cc2)cc1` [Example 102, methyl 4-[4-[(tetrahydro-4-[(hydroxyamino)carbonyl]-2H-pyran-4-yl]sulfonyl]-phenoxy]benzenepropanoate], for which the values for the IC50 on recombinant human MMP-2, on recombinant human MMP-13 and on recombinant human MMP-1 were < 0.1 nM, 0.2 nM and 2000 nM, respectively.
For `C#CCN1CCC(Oc2ccc(S(=O)(=O)C3(C(=O)NO)CCOCC3)cc2)CC1` [Example 106, Tetrahydro-N-hydroxy-4-[[4-[[1-(2-propynyl)-4-piperidinyl]-oxy]phenyl]sulfonyl]-2H-pyran-4-carboxamide, Monohydrochloride] the same measures were 27.1 nM, 12.1 nM and > 10000 nM.
For `CC(=O)N1CCC(Oc2ccc(S(=O)(=O)C3(C(=O)NO)CCOCC3)cc2)CC1` [Example 107, 4-[[4-[(1-acetyl-4-piperidinyl)oxy]phenyl]-sulfonyl]tetrahydro-N-hydroxy-2H-pyran-4-carboxamide] the same measures were 12.1 nM, 6 nM and > 10000 nM.
For `O=C(NO)C1(S(=O)(=O)c2ccc(Oc3ccc(F)c(Cl)c3)cc2)CCOCC1` [Example 108, 4-[[4-(3-chloro-4-fluorophenoxy)phenyl]sulfonyl]-tetrahydro-N-hydroxy-2H-pyran-4-carboxamide], the IC50 at recombinant human MMP-2 stood at 0.4 nM; at recombinant human MMP-13 it was 0.4 nM; on recombinant human MMP-1, 2000 nM.
Regarding `CC(=O)N1CCN(c2ccc(Oc3ccc(S(=O)(=O)C4(C(=O)NO)CCSCC4)cc3)cc2)CC1` [Example 112], the IC50 at recombinant human MMP-2 is 7 nM; at recombinant human MMP-13, 3.2 nM; on recombinant human MMP-1 it was 1000 nM.
